The SangsterLogP compilation

Assay: method code SF-AS, from DOI: 10.1002/jps.2600800814, PMID: 1791539

Row | SMILES | logP
1 | COc1cncc(N(C)C)n1 | 1.99
2 | Cc1cnc(Cl)cn1 | 1.08
3 | COC(=O)c1cncc(N(C)C)n1 | 0.9
4 | Cc1cnc(C#N)cn1 | 0.26
5 | COC(=O)c1cncc(Cl)n1 | 0.47
6 | COC(=O)c1cncc(C)n1 | 0.1
7 | CN(C)c1cncc(C#N)n1 | 1.12
8 | CCc1nccnc1CC | 1.51
9 | Cc1cncc(N(C)C)n1 | 1.57
10 | CCOC(=O)c1cnc(C)cn1 | 0.61
11 | CCCc1nccnc1C | 1.57
12 | Fc1cncc(F)n1 | 0.74
13 | Cc1nc(C#N)c(C#N)nc1Cl | 1.29
14 | Cc1cncc(Cl)n1 | 1.03
15 | Cc1cncc(C#N)n1 | 0.44
16 | CCOC(=O)c1cncc(OC)n1 | 1.2
17 | CCCCc1nc(C#N)c(C#N)nc1C | 2.3
18 | Cc1cnc(C(N)=O)cn1 | -0.25
19 | CCc1nccnc1C | 1.07
20 | CCOC(=O)c1cncc(N(C)C)n1 | 1.24
21 | COC(=O)c1cnc(C)cn1 | 0.17
22 | Cc1cnc(C)c(Cl)n1 | 1.5
23 | CCOc1cncc(Cl)n1 | 2.22
24 | CCCOc1cncc(Cl)n1 | 2.71
25 | CCOc1nccnc1C | 1.82

Row | SMILES | logP
26 | Cc1nccnc1C | 0.54
27 | CN(C)c1cncc(Cl)n1 | 1.95
28 | COc1cnc(Cl)cn1 | 1.52
29 | COc1cncc(C)n1 | 1.29
30 | N#Cc1nccnc1C#N | 0.38
31 | CCOc1cnc(Cl)cn1 | 1.99
32 | CSc1nccnc1C | 1.81
33 | CCOc1cncc(OCC)n1 | 2.55
34 | COc1cncc(Cl)n1 | 1.65
35 | CC(=O)Nc1cnc(Cl)cn1 | 0.56
36 | Clc1cncc(Cl)n1 | 1.53
37 | CC(=O)Nc1cncc(Cl)n1 | 1.1
38 | CCOc1cncc(OC)n1 | 1.98
39 | CCOC(=O)c1cncc(C)n1 | 0.51
40 | Cc1nccnc1OC(C)C | 2.24
41 | N#Cc1ncc(Cl)nc1C#N | 0.95
42 | COc1nccnc1C | 1.24
43 | NC(=O)c1cncc(Cl)n1 | 0.28
44 | CCCCc1nc(C#N)c(C#N)nc1Cl | 2.89
45 | Clc1cnc(Cl)cn1 | 1.58
46 | COc1cncc(N)n1 | 0.73
47 | CCOC(=O)c1nccnc1C(=O)OCC | 0.65
48 | N#Cc1cncc(Cl)n1 | 0.79
49 | COC(=O)c1cncc(OC)n1 | 0.69
50 | CCc1nccnc1OC | 1.8

Row | SMILES | logP
51 | Cc1cncc(C(N)=O)n1 | -0.13
52 | Cc1cncc(N)n1 | 0.35
53 | COC(=O)c1nccnc1C(=O)OC | -0.02
54 | Nc1cncc(N)n1 | -0.45
55 | CCOc1cncc(C(N)=O)n1 | 0.61
56 | COc1cncc(C#N)n1 | 0.95
57 | COc1cnc(OC)cn1 | 1.14
58 | COc1cncc(OC)n1 | 1.58
59 | CN(C)c1cnc(Cl)cn1 | 1.7
60 | CCc1nc(C#N)c(C#N)nc1Cl | 1.79
61 | CC(=O)Nc1cncc(C)n1 | 0.38
62 | COc1cncc(C(N)=O)n1 | 0.13
63 | Cc1nc(C)c(C)nc1C | 1.28
64 | Fc1cncc(Cl)n1 | 1.15
65 | Cc1cnc(C)c(C)n1 | 0.95
66 | CN(C)c1cncc(C(N)=O)n1 | 0.38
67 | CCc1ncc(C)nc1CC | 1.95
68 | Nc1cnc(Cl)cn1 | 0.67
69 | COc1cncc(NC(C)=O)n1 | 0.82
70 | CCCCc1nccnc1C | 2.1
71 | Cc1cncc(C)n1 | 0.54
72 | COc1cnc(N(C)C)cn1 | 1.65
73 | COc1cnc(N)cn1 | 0.63
74 | Nc1cncc(Cl)n1 | 0.95
